# Experimental data: PubChem BioAssay (NCI)
#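 Compound exposure: 48 hours, 5 concentrations, 96-well plates. TGI marks complete inhibition of growth.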
# Experiments:
# Assay in all cases: growth of human tumour cells (NCI), 48 h
# NCI-H522 lung = tested on: NCI-H522 lung
# COLO 205 colon = tested on: COLO 205 colon
# M19-MEL melanoma = tested on: M19-MEL melanoma
# OVCAR-4 ovarian = tested on: OVCAR-4 ovarian
# SK-OV-3 ovarian = tested on: SK-OV-3 ovarian
# SF-268 CNS = tested on: SF-268 CNS
# UACC-257 melanoma = tested on: UACC-257 melanoma
# OVCAR-5 ovarian = tested on: OVCAR-5 ovarian
# M14 melanoma = tested on: M14 melanoma
# UACC-62 melanoma = tested on: UACC-62 melanoma
# NCI-H23 lung = tested on: NCI-H23 lung
# HT29 colon = tested on: HT29 colon
# SNB-78 CNS = tested on: SNB-78 CNS
# LXFL 529 NSCLC = tested on: LXFL 529 NSCLC
# OVCAR-3 ovarian = tested on: OVCAR-3 ovarian
# KM20L2 colon = tested on: KM20L2 colon
# SK-MEL-5 melanoma = tested on: SK-MEL-5 melanoma
# ACHN renal = tested on: ACHN renal
# XF 498 CNS = tested on: XF 498 CNS
# HOP-92 NSCLC = tested on: HOP-92 NSCLC
# HOP-18 NSCLC = tested on: HOP-18 NSCLC
# A498 renal = tested on: A498 renal
# DMS 114 small cell lung = tested on: DMS 114 small cell lung
# KM12 colon = tested on: KM12 colon
# HCC-2998 colon = tested on: HCC-2998 colon
# DMS 273 small cell lung = tested on: DMS 273 small cell lung
# TK-10 renal = tested on: TK-10 renal
# U251 CNS = tested on: U251 CNS
# SK-MEL-2 melanoma = tested on: SK-MEL-2 melanoma
# 786-0 renal = tested on: 786-0 renal
# IGROV1 ovarian = tested on: IGROV1 ovarian
# K-562 leukemia = tested on: K-562 leukemia
# HL-60(TB) leukemia = tested on: HL-60(TB) leukemia
# HOP-62 NSCLC = tested on: HOP-62 NSCLC
# HCT-15 colon = tested on: HCT-15 colon
# DLD-1 colon = tested on: DLD-1 colon
# MOLT-4 leukemia = tested on: MOLT-4 leukemia
# RXF-631 renal = tested on: RXF-631 renal
# MALME-3M melanoma = tested on: MALME-3M melanoma
# UO-31 renal = tested on: UO-31 renal
# RPMI-8226 leukemia = tested on: RPMI-8226 leukemia
# SF-295 CNS = tested on: SF-295 CNS
# SF-539 CNS = tested on: SF-539 CNS
# SK-MEL-28 melanoma = tested on: SK-MEL-28 melanoma
# LOX IMVI melanoma = tested on: LOX IMVI melanoma
# CAKI-1 renal = tested on: CAKI-1 renal
# CCRF-CEM leukemia = tested on: CCRF-CEM leukemia
# NCI-H226 lung = tested on: NCI-H226 lung
# NCI-H460 lung = tested on: NCI-H460 lung
# A549 NSCLC = tested on: A549 NSCLC
# SW-620 colon = tested on: SW-620 colon
# SNB-19 CNS = tested on: SNB-19 CNS
# EKVX NSCLC = tested on: EKVX NSCLC
# SN12C renal = tested on: SN12C renal
# SR leukemia = tested on: SR leukemia
# RXF 393 renal = tested on: RXF 393 renal
# OVCAR-8 ovarian = tested on: OVCAR-8 ovarian
# HCT-116 colon = tested on: HCT-116 colon
# SNB-75 CNS = tested on: SNB-75 CNS
smiles,measurement,setting,value
S=P1(c2ccccc2)Nc2ccc(Cl)cc2N1 (configuration not stated),TGI,NCI-H522 lung,> 100 µM
same,TGI,COLO 205 colon,45.5 µM
same,TGI,M19-MEL melanoma,67.2 µM
same,TGI,OVCAR-4 ovarian,> 100 µM
same,TGI,SK-OV-3 ovarian,> 100 µM
same,TGI,SF-268 CNS,> 100 µM
same,TGI,UACC-257 melanoma,> 100 µM
same,TGI,OVCAR-5 ovarian,> 100 µM
same,TGI,M14 melanoma,56.9 µM
same,TGI,UACC-62 melanoma,26.4 µM
same,TGI,NCI-H23 lung,> 100 µM
same,TGI,HT29 colon,> 100 µM
same,TGI,SNB-78 CNS,> 100 µM
same,TGI,LXFL 529 NSCLC,> 100 µM
same,TGI,OVCAR-3 ovarian,> 100 µM
same,TGI,KM20L2 colon,> 100 µM
same,TGI,SK-MEL-5 melanoma,> 100 µM
same,TGI,ACHN renal,> 100 µM
same,TGI,XF 498 CNS,> 100 µM
same,TGI,HOP-92 NSCLC,71.9 µM
same,TGI,HOP-18 NSCLC,> 100 µM
same,TGI,A498 renal,> 100 µM
same,TGI,DMS 114 small cell lung,> 100 µM
same,TGI,KM12 colon,> 100 µM
same,TGI,HCC-2998 colon,> 100 µM
same,TGI,DMS 273 small cell lung,> 100 µM
same,TGI,TK-10 renal,> 100 µM
same,TGI,U251 CNS,> 100 µM
same,TGI,SK-MEL-2 melanoma,> 100 µM
same,TGI,786-0 renal,> 100 µM
same,TGI,IGROV1 ovarian,> 100 µM
same,TGI,K-562 leukemia,> 100 µM
same,TGI,HL-60(TB) leukemia,57.5 µM
same,TGI,HOP-62 NSCLC,> 100 µM
same,TGI,HCT-15 colon,> 100 µM
same,TGI,DLD-1 colon,> 100 µM
same,TGI,MOLT-4 leukemia,> 100 µM
same,TGI,RXF-631 renal,> 100 µM
same,TGI,MALME-3M melanoma,> 100 µM
same,TGI,UO-31 renal,> 100 µM
same,TGI,RPMI-8226 leukemia,> 100 µM
same,TGI,SF-295 CNS,> 100 µM
same,TGI,SF-539 CNS,> 100 µM
same,TGI,SK-MEL-28 melanoma,> 100 µM
same,TGI,LOX IMVI melanoma,> 100 µM
same,TGI,CAKI-1 renal,> 100 µM
same,TGI,CCRF-CEM leukemia,> 100 µM
same,TGI,NCI-H226 lung,> 100 µM
same,TGI,NCI-H460 lung,> 100 µM
same,TGI,A549 NSCLC,> 100 µM
same,TGI,SW-620 colon,> 100 µM
same,TGI,SNB-19 CNS,> 100 µM
same,TGI,EKVX NSCLC,> 100 µM
CCOC(=O)N[C@H]1CCc2cc(O)c(OC)c(OC)c2-c2ccc(SC)c(=O)cc21,TGI,NCI-H522 lung,0.046 µM
same,TGI,COLO 205 colon,1.22 µM
same,TGI,M19-MEL melanoma,> 100 µM
same,TGI,OVCAR-4 ovarian,> 100 µM
same,TGI,SK-OV-3 ovarian,> 8.57 µM
same,TGI,SN12C renal,> 58.9 µM
same,TGI,SF-268 CNS,37.8 µM
same,TGI,UACC-257 melanoma,> 100 µM
same,TGI,OVCAR-5 ovarian,> 100 µM
same,TGI,M14 melanoma,51.5 µM
same,TGI,UACC-62 melanoma,> 100 µM
same,TGI,NCI-H23 lung,9.95 µM
same,TGI,HT29 colon,7.22 µM
same,TGI,SNB-78 CNS,> 8 µM
same,TGI,SR leukemia,> 100 µM
same,TGI,RXF 393 renal,0.0207 µM
same,TGI,LXFL 529 NSCLC,> 92.3 µM
same,TGI,OVCAR-3 ovarian,0.0375 µM
same,TGI,KM20L2 colon,0.0301 µM
same,TGI,SK-MEL-5 melanoma,0.0145 µM
same,TGI,ACHN renal,> 100 µM
same,TGI,XF 498 CNS,> 44.4 µM
same,TGI,HOP-92 NSCLC,0.0786 µM
same,TGI,HOP-18 NSCLC,> 100 µM
same,TGI,A498 renal,0.922 µM
same,TGI,DMS 114 small cell lung,0.473 µM
same,TGI,KM12 colon,0.413 µM
same,TGI,HCC-2998 colon,> 100 µM
same,TGI,DMS 273 small cell lung,> 100 µM
same,TGI,TK-10 renal,> 100 µM
same,TGI,U251 CNS,> 6.92 µM
same,TGI,OVCAR-8 ovarian,> 100 µM
same,TGI,SK-MEL-2 melanoma,0.173 µM
same,TGI,786-0 renal,> 59.9 µM
same,TGI,IGROV1 ovarian,> 86.9 µM
same,TGI,K-562 leukemia,> 100 µM
same,TGI,HOP-62 NSCLC,> 100 µM
same,TGI,HCT-15 colon,> 100 µM
same,TGI,DLD-1 colon,> 100 µM
same,TGI,MOLT-4 leukemia,> 100 µM
same,TGI,RXF-631 renal,2.91 µM
same,TGI,MALME-3M melanoma,> 100 µM
same,TGI,UO-31 renal,> 100 µM
same,TGI,HCT-116 colon,10.7 µM
same,TGI,RPMI-8226 leukemia,> 72.6 µM
same,TGI,SF-295 CNS,0.0995 µM
same,TGI,SF-539 CNS,0.044 µM
same,TGI,SK-MEL-28 melanoma,> 100 µM
same,TGI,LOX IMVI melanoma,> 100 µM
same,TGI,CAKI-1 renal,> 65.3 µM
same,TGI,CCRF-CEM leukemia,> 13.9 µM
same,TGI,NCI-H226 lung,1.25 µM
same,TGI,NCI-H460 lung,3.58 µM
same,TGI,A549 NSCLC,> 100 µM
same,TGI,SW-620 colon,> 100 µM
same,TGI,SNB-19 CNS,> 100 µM
same,TGI,EKVX NSCLC,> 100 µM
O=C1Cc2ccccc2N1c1c(Cl)cccc1Cl,TGI,NCI-H522 lung,> 100 µM
same,TGI,COLO 205 colon,> 100 µM
same,TGI,M19-MEL melanoma,> 100 µM
same,TGI,OVCAR-4 ovarian,> 100 µM
same,TGI,SK-OV-3 ovarian,> 100 µM
same,TGI,SN12C renal,> 100 µM
same,TGI,SF-268 CNS,> 100 µM
same,TGI,UACC-257 melanoma,> 100 µM
same,TGI,SNB-75 CNS,> 100 µM
same,TGI,OVCAR-5 ovarian,> 100 µM
same,TGI,M14 melanoma,> 100 µM
same,TGI,UACC-62 melanoma,> 100 µM
same,TGI,NCI-H23 lung,> 100 µM
same,TGI,HT29 colon,> 100 µM
same,TGI,SNB-78 CNS,> 100 µM
same,TGI,SR leukemia,90.2 µM
same,TGI,LXFL 529 NSCLC,> 100 µM
same,TGI,OVCAR-3 ovarian,> 100 µM
same,TGI,KM20L2 colon,> 100 µM
same,TGI,SK-MEL-5 melanoma,> 100 µM
same,TGI,ACHN renal,> 100 µM
same,TGI,XF 498 CNS,82.3 µM
same,TGI,HOP-92 NSCLC,> 100 µM
same,TGI,HOP-18 NSCLC,> 100 µM
same,TGI,A498 renal,> 100 µM
same,TGI,DMS 114 small cell lung,95.4 µM
same,TGI,KM12 colon,> 100 µM
same,TGI,HCC-2998 colon,> 100 µM
same,TGI,TK-10 renal,> 100 µM
same,TGI,U251 CNS,> 100 µM
same,TGI,OVCAR-8 ovarian,> 100 µM
same,TGI,SK-MEL-2 melanoma,> 100 µM
same,TGI,786-0 renal,> 100 µM
same,TGI,IGROV1 ovarian,> 100 µM
same,TGI,K-562 leukemia,> 100 µM
same,TGI,HL-60(TB) leukemia,50.8 µM
same,TGI,HOP-62 NSCLC,> 100 µM
same,TGI,HCT-15 colon,> 100 µM
same,TGI,DLD-1 colon,> 100 µM
same,TGI,MOLT-4 leukemia,98.1 µM
same,TGI,RXF-631 renal,> 100 µM
same,TGI,MALME-3M melanoma,> 100 µM
same,TGI,UO-31 renal,> 100 µM
same,TGI,HCT-116 colon,> 100 µM
same,TGI,RPMI-8226 leukemia,62.7 µM
same,TGI,SF-295 CNS,> 100 µM
same,TGI,SF-539 CNS,> 100 µM
same,TGI,SK-MEL-28 melanoma,> 100 µM
same,TGI,LOX IMVI melanoma,> 100 µM
same,TGI,CAKI-1 renal,> 100 µM
same,TGI,CCRF-CEM leukemia,> 100 µM
same,TGI,NCI-H226 lung,> 100 µM
same,TGI,NCI-H460 lung,> 100 µM
same,TGI,A549 NSCLC,> 100 µM
same,TGI,SW-620 colon,> 100 µM
same,TGI,SNB-19 CNS,> 100 µM
same,TGI,EKVX NSCLC,> 100 µM
